Assay results as given in ChEMBL document CHEMBL5512685, “Discovery of a Promising CBP/p300 Degrader XYD129 for the Treatment of Acute Myeloid Leukemia” (J Med Chem, 2024).
One block for each molecule: values may come before it.

What was measured:
[1] = target: Histone acetyltransferase p300 (Homo sapiens, UniProt Q09472); experiment: Inhibition of C-terminal biotinylated tetra-acetylated histone peptide H4 binding to His6-fused human p300 bromodomain (A1040 to G1161 residues) incubated for 1 hrs by HTRF assay
Protein cereblon = Protein cereblon (Homo sapiens, UniProt Q96SW2); experiment: Inhibition of biotinylated thalidomide binding to CRBN (40 to 442 residues) (unknown origin) incubated for 1 hrs by HTRF assay
[2] = Antiproliferative activity against human MOLM16 cells assessed as inhibition of cell growth incubated for 72 hrs by celltiter glo luminescence analysis; format: functional, cell-based, MOLM-16; settings: MOLM16, 72 h
KG-1 = experiment: Antiproliferative activity against human KG-1 cells assessed as inhibition of cell growth incubated for 72 hrs by celltiter glo luminescence analysis; format: functional, cell-based; settings: KG-1, 72 h
CREB-binding protein = CREB-binding protein (Homo sapiens, UniProt Q92793); experiment: Inhibition of C-terminal biotinylated tetra-acetylated histone peptide H4 binding to His6-fused human CBP bromodomain (R1081 to G1197 residues) incubated for 1 hrs by HTRF assay
MV4-11 [3] = experiment: Potency index, ratio of Y08207 IC50 to test compound IC50 for antiproliferative activity against human MV4-11 cells assessed as inhibition of cell growth incubated for 120 hrs by celltiter glo luminescence analysis; format: functional
[4] = Cytotoxicity against human HL7702 cells assessed as inhibition of cell growth incubated for 72 hrs by celltiter glo luminescence analysis; format: toxicity, cell-based; settings: HL7702 (L02) cells
MV4-11 [5] = experiment: Antiproliferative activity against human MV4-11 cells assessed as inhibition of cell growth incubated for 120 hrs by celltiter glo luminescence analysis; format: functional, cell-based; settings: MV4-11, 120 h
[6] = target: T1, Protein cereblon/CREB-binding protein (Homo sapiens) (UniProt Q92793+Q96SW2); experiment: PROTAC activity at CRBN/CBP in human MOLM16 cells assessed as induction of CBP degradation incubated for 24 hrs by Western blot analysis; format: cell-based; settings: dose 0-1000 nM
[7] = target: T2, Protein cereblon/Histone acetyltransferase p300 (Homo sapiens) (UniProt Q09472+Q96SW2); experiment: PROTAC activity at CRBN/p300 in human MOLM16 cells assessed as induction of p300 degradation at 1000 nM incubated for 24 hrs by Western blot analysis relative to control; format: cell-based
[8] = target: T2, Protein cereblon/Histone acetyltransferase p300 (Homo sapiens); experiment: PROTAC activity at CRBN/p300 in human MOLM16 cells assessed as induction of p300 degradation incubated for 24 hrs by Western blot analysis; format: cell-based; settings: dose 0-1000 nM
[9] = target: T1, Protein cereblon/CREB-binding protein (Homo sapiens); experiment: PROTAC activity at CRBN/CBP in human MOLM16 cells assessed as induction of CBP degradation at 1000 nM incubated for 24 hrs by Western blot analysis relative to control; format: cell-based

Structure (SMILES): CC(=O)c1cc(C(=O)Nc2cc(CO)cc(-c3cnn(C)c3)c2F)c2cc(OC3CCN(C(=O)CCOCCOCCOCCOCCNc4cccc5c4C(=O)N(C4CCC(=O)NC4=O)C5=O)CC3)ccn12 (stereo not drawn)
- IC50 (MV4-11 [5]): 4.89 µM

Structure (SMILES): CC(=O)c1cc(C(=O)Nc2cc(CO)cc(-c3cnn(C)c3)c2F)c2cc(OC3CCN(C(=O)CCOCCOCCOCCNc4cccc5c4C(=O)N(C4CCC(=O)NC4=O)C5=O)CC3)ccn12 (stereo not drawn)
- IC50 (MV4-11 [5]): 5.39 µM

Structure (SMILES): CC(=O)c1cc(C(=O)Nc2cc(CO)cc(-c3cnn(C)c3)c2F)c2cc(OC3CCN(C(=O)CCOCCOCCNc4cccc5c4C(=O)N(C4CCC(=O)NC4=O)C5=O)CC3)ccn12 (stereo not drawn)
- IC50 (MV4-11 [5]): 11.1 µM

Structure (SMILES): CC(=O)c1cc(C(=O)Nc2cc(CO)cc(-c3cnn(C)c3)c2F)c2cc(OCCCC(=O)NCC#Cc3cccc4c3C(=O)N(C3CCC(=O)NC3=O)C4=O)ccn12 (stereo not drawn)
- IC50 (MV4-11 [5]): 23.2 µM

Structure (SMILES): CC(=O)c1cc(C(=O)Nc2cc(CO)cc(-c3cnn(C)c3)c2F)c2cc(OCCCC(=O)NCCCCCCNc3cccc4c3C(=O)N(C3CCC(=O)NC3=O)C4=O)ccn12 (stereo not drawn)
- IC50 (MV4-11 [5]): > 20 µM

Structure (SMILES): CC(=O)c1cc(C(=O)Nc2cc(CO)cc(-c3cnn(C)c3)c2F)c2cc(OC3CCN(C(=O)CCOCCNc4cccc5c4C(=O)N(C4CCC(=O)NC4=O)C5=O)CC3)ccn12 (stereo not drawn)
- IC50 (MV4-11 [5]): 8.03 µM

Structure (SMILES): CC(=O)c1cc(C(=O)Nc2cc(CO)cc(-c3cnn(C)c3)c2F)c2cc(OCCCCCCC(=O)NCCCc3cccc4c3C(=O)N(C3CCC(=O)NC3=O)C4=O)ccn12 (stereo not drawn)
- IC50 [1]: 0.051 µM
- IC50 (Protein cereblon): 7 µM
- IC50 (CREB-binding protein): 0.036 µM
- IC50 (MV4-11 [5]): 1.03 µM

Structure (SMILES): CO[C@H]1CC[C@H](n2c([C@@H]3CCCC(=O)N3c3ccc(F)c(F)c3)nc3cc(-c4c(C)noc4C)ccc32)CC1 [INOBRODIB]
- IC50 (Protein cereblon): > 100 µM
- IC50 [2]: 0.37 µM
- IC50 (KG-1): 17 µM
- IC50 at 72 h [4]: 20 µM
- IC50 (MV4-11 [5]): 0.014 µM

Structure (SMILES): CC(=O)c1cc(C(=O)Nc2cc(CO)cc(-c3cnn(C)c3)c2F)c2cc(OCCCCCCCC(=O)NCCCc3cccc4c3C(=O)N(C3CCC(=O)NC3=O)C4=O)ccn12 (stereo not drawn)
- IC50 (MV4-11 [5]): 1.25 µM

Structure (SMILES): CC(=O)c1cc(C(=O)Nc2cc(CO)cc(-c3cnn(C)c3)c2F)c2cc(OCC(=O)NCCCc3cccc4c3C(=O)N(C3CCC(=O)NC3=O)C4=O)ccn12 (stereo not drawn)
- IC50 (MV4-11 [5]): 7.51 µM

Structure (SMILES): CC(=O)c1cc(C(=O)Nc2cc(CO)cc(-c3cnn(C)c3)c2F)c2cc(O)ccn12
- IC50 [1]: 0.007 µM
- IC50 (Protein cereblon): > 100 µM
- IC50 [2]: 13.5 µM
- IC50 (KG-1): 11.6 µM
- IC50 (CREB-binding protein): 0.006 µM
- IC50 at 72 h [4]: 38.3 µM
- IC50 (MV4-11 [5]): 6.37 µM

More lines, main results first:

- IC50 [1]: 0.046 µM
- IC50 (Protein cereblon): 0.79 µM
- IC50 (CREB-binding protein): 0.068 µM
- IC50 (MV4-11 [5]): 0.46 µM
Structure (SMILES): CC(=O)c1cc(C(=O)Nc2cc(CO)cc(-c3cnn(C)c3)c2F)c2cc(OCCCCCC(=O)NCCCc3cccc4c3C(=O)N(C3CCC(=O)NC3=O)C4=O)ccn12 (stereo not drawn)
- IC50 [2]: 0.054 µM
- IC50 (KG-1): 4.77 µM
- Ratio IC50 (MV4-11 [3]): ~8
- IC50 at 72 h [4]: > 100 µM

- IC50 [1]: 0.077 µM
- IC50 (Protein cereblon): 1.1 µM
- IC50 (CREB-binding protein): 0.073 µM
- Activity [6]: Dose-Dependent Effect
- Activity [7]: 100%
- IC50 (MV4-11 [5]): 0.42 µM
- Activity [8]: Dose-Dependent Effect
- Activity [9]: 100%
Structure (SMILES): CC(=O)c1cc(C(=O)Nc2cc(CO)cc(-c3cnn(C)c3)c2F)c2cc(OCCCC(=O)NCCNc3cccc4c3C(=O)N(C3CCC(=O)NC3=O)C4=O)ccn12 (stereo not drawn)
- IC50 [2]: 0.021 µM
- IC50 (KG-1): 3.95 µM
- IC50 at 72 h [4]: > 100 µM

- IC50 (MV4-11 [5]): > 20 µM
Structure (SMILES): CC(=O)c1cc(C(=O)Nc2cc(CO)cc(-c3cnn(C)c3)c2F)c2cc(OCC(=O)NCCNc3cccc4c3C(=O)N(C3CCC(=O)NC3=O)C4=O)ccn12 (stereo not drawn)

- IC50 (MV4-11 [5]): > 20 µM
Structure (SMILES): CC(=O)c1cc(C(=O)Nc2cc(CO)cc(-c3cnn(C)c3)c2F)c2cc(OCCCC(=O)NCCCCNc3cccc4c3C(=O)N(C3CCC(=O)NC3=O)C4=O)ccn12 (stereo not drawn)

- IC50 [1]: 0.022 µM
- IC50 (Protein cereblon): 0.47 µM
- IC50 (CREB-binding protein): 0.02 µM
- IC50 (MV4-11 [5]): 0.75 µM
Structure (SMILES): CC(=O)c1cc(C(=O)Nc2cc(CO)cc(-c3cnn(C)c3)c2F)c2cc(OCCCCC(=O)NCCCc3cccc4c3C(=O)N(C3CCC(=O)NC3=O)C4=O)ccn12 (stereo not drawn)
- Ratio IC50 (MV4-11 [3]): ~8

- IC50 (MV4-11 [5]): 1.48 µM
Structure (SMILES): CC(=O)c1cc(C(=O)Nc2cc(CO)cc(-c3cnn(C)c3)c2F)c2cc(OCCCC(=O)NCCCc3cccc4c3C(=O)N(C3CCC(=O)NC3=O)C4=O)ccn12 (stereo not drawn)

- IC50 (MV4-11 [5]): 23 µM
Structure (SMILES): CC(=O)c1cc(C(=O)Nc2cc(CO)cc(-c3cnn(C)c3)c2F)c2cc(OCC(=O)NCC#Cc3cccc4c3C(=O)N(C3CCC(=O)NC3=O)C4=O)ccn12 (stereo not drawn)

- IC50 (MV4-11 [5]): 13 µM
Structure (SMILES): CC(=O)c1cc(C(=O)Nc2cc(CO)cc(-c3cnn(C)c3)c2F)c2cc(OCCCCCC(=O)NCC#Cc3cccc4c3C(=O)N(C3CCC(=O)NC3=O)C4=O)ccn12 (stereo not drawn)

- IC50 (MV4-11 [5]): > 20 µM
Structure (SMILES): CC(=O)c1cc(C(=O)Nc2cc(CO)cc(-c3cnn(C)c3)c2F)c2cc(OCCCC(=O)NCCCCCCCCNc3cccc4c3C(=O)N(C3CCC(=O)NC3=O)C4=O)ccn12 (stereo not drawn)

- IC50 (MV4-11 [5]): 3.25 µM
Structure (SMILES): CC(=O)c1cc(C(=O)Nc2cc(CO)cc(-c3cnn(C)c3)c2F)c2cc(OCCCCCCCC(=O)NCC#Cc3cccc4c3C(=O)N(C3CCC(=O)NC3=O)C4=O)ccn12 (stereo not drawn)
- Ratio IC50 (MV4-11 [3]): ~2

- IC50 (MV4-11 [5]): 17.8 µM
Structure (SMILES): CC(=O)c1cc(C(=O)Nc2cc(CO)cc(-c3cnn(C)c3)c2F)c2cc(OCCCC(=O)NCCNc3ccc4c(c3)C(=O)N(C3CCC(=O)NC3=O)C4=O)ccn12 (stereo not drawn)

- IC50 (MV4-11 [5]): > 20 µM
Structure (SMILES): CC(=O)c1cc(C(=O)Nc2cc(CO)cc(-c3cnn(C)c3)c2F)c2cc(OCC(=O)NCCCCNc3ccc4c(c3)C(=O)N(C3CCC(=O)NC3=O)C4=O)ccn12 (stereo not drawn)

- IC50 (MV4-11 [5]): 3.93 µM
Structure (SMILES): CC(=O)c1cc(C(=O)Nc2cc(CO)cc(-c3cnn(C)c3)c2F)c2cc(OCCCCCCC(=O)NCC#Cc3cccc4c3C(=O)N(C3CCC(=O)NC3=O)C4=O)ccn12 (stereo not drawn)
- Ratio IC50 (MV4-11 [3]): ~2

- IC50 (MV4-11 [5]): 21.2 µM
Structure (SMILES): CC(=O)c1cc(C(=O)Nc2cc(CO)cc(-c3cnn(C)c3)c2F)c2cc(OCCCCC(=O)NCC#Cc3cccc4c3C(=O)N(C3CCC(=O)NC3=O)C4=O)ccn12 (stereo not drawn)

- IC50 (MV4-11 [5]): 1.06 µM
Structure (SMILES): CC(=O)c1cc(C(=O)Nc2cc(CO)cc(-c3cnn(C)c3)c2F)c2cc(OCC(=O)NCCCNc3cccc4c3C(=O)N(C3CCC(=O)NC3=O)C4=O)ccn12 (stereo not drawn)
- Ratio IC50 (MV4-11 [3]): 6
